Measured values from publication PMC10113214 (Scientific Reports, 2023).

How the values were obtained:
[1] = molecular target: T1, Human neutrophil elastase (Homo sapiens, UniProt P08246); assay: Elastase enzymatic cleavage; format: in vitro ADME; conditions: human neutrophil elastase 150 nM, peptide 1 mM, 30 min, 37 °C; for identified fragments of peptides after elastase digestion (most abundant MS signals): 300 rpm, 0.1 M Tris HCl, 500 mM NaCl, 0.05% Triton X-100, 20 mM CaCl2 pH 7.5, HPLC and MALDI or LC-MS
T1 construct: purchased Sigma-Aldrich
T1 sequence (P08246 30-267): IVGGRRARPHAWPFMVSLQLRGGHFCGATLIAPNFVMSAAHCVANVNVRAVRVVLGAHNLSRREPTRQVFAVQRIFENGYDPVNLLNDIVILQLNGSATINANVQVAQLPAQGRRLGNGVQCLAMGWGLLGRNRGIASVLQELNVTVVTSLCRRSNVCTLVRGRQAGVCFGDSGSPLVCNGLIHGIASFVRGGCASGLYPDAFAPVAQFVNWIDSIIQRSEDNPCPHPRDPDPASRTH
Protocol: Human neutrophil elastase (EC No. 3.4.21.37, Sigma-Aldrich) was used to study peptide susceptibility to that enzyme. Peptides were dissolved in 0.1 M Tris HCl, 500 mM NaCl, 0.05% Triton X-100, 20 mM CaCl2 pH 7.5 buffer mixture. Peptides (final concentration 1 mM) were mixed with the enzyme (final concentration 150 nM) and incubated for 30 min. in a thermoshaker (37 °C, 300 rpm). The reaction was stopped by a 10% aqueous solution of TFA. The results were analyzed using HPLC and MALDI or LC–MS. Details of this experiment are described in the Supplementary Data.

[2] = Transmission electron microscopy of nanofibres; format: physicochemical; conditions: 1% gel in PBS diluted to 0.001%, uranyl acetate stain
Protocol: 1% gel solutions were prepared and incubated in PBS. The samples were then diluted to 0.001% concentration. A drop of solution was applied to a microcellulose membrane and stained with a 1.5% solution of uranyl acetate. The images were registered on a Tecnai Spirit BioTwin FEI Transmission Electron Microscope operating at 120 kV.

[3] = system: HaCaT keratinocytes; assay: LDH cytotoxicity assay, HaCaT; format: cell-based, human; conditions: 150 µg/ml, 48 h, 3 independent experiments, n = 12
Protocol: Human HaCaT keratinocytes (DKFZ, Heidelberg, Germany)[47],[48], the human dermal fibroblast 46BR.1N cell line (ECACC, Sigma Aldrich Co.) and human primary dermal fibroblasts used in this study were routinely cultured in culture flasks (growth surface area: 25 cm^2) in DMEM-HG medium supplemented with 10% fetal bovine serum, 100 U/mL penicillin and […] streptomycin under standard conditions.
Briefly, the HaCaT and 46BR.1N cells were seeded in 96-well plates at a density of 5000 per well. Cell stimulation with RADA derivatives was performed using a protocol described before[49],[50]. Both assays were performed according to the manufacturers’ instructions (XTT- Roche, Cat. No. 11465015001; LDH- Takara, Cat. No. MK401).

[4] = system: human primary dermal fibroblasts; format: cell-based
Protocol: Skin samples were obtained from patients of the Oncological Surgery Clinic in the Medical University of Gdańsk. The procedure was approved by the Independent Bioethics Commission for Research of the Medical University of Gdańsk (NKBBN/387/2014) and written informed consent was obtained from patients prior to surgery. All experiments were performed in accordance with guidelines and regulations. The isolation of fibroblasts was performed by explant culture as previously described. Briefly, skin samples were cut into small pieces, and the epidermis was removed by dispase digestion. To allow cells to grow out from the tissue samples, the human dermis was placed in 6-well plates in DMEM-HG medium (Sigma Aldrich Co., cat. D6429) supplemented with 10% of FBS (fetal bovine serum, Sigma-Aldrich Co., F9665), 100 U/mL of penicillin and 100 μg/mL streptomycin, and placed under standard conditions (humidified atmosphere with 5% CO2 at 37 °C). The medium was changed every 2–3 days.
RADA peptides were dissolved in water at a concentration of 1.0%, placed in culture inserts (0.4 μm) in 24-well plates, and incubated for at least 1 h at 37 °C to allow gelation. […] After 3 days of incubation, cells were stained with carboxyfluorescein succinimidyl ester (CFSE) (10 μM) and propidium iodide (100 µM) for 3 min. and then analyzed by fluorescence microscopy to assess their viability.

CC(=O)N[C@@H](CCCNC(=N)N)C(=O)N[C@@H](C)C(=O)N[C@@H](CC(=O)O)C(=O)N[C@@H](C)C(=O)N[C@@H](CCCNC(=N)N)C(=O)N[C@@H](C)C(=O)N[C@@H](CC(=O)O)C(=O)N[C@@H](C)C(=O)N[C@@H](CCCNC(=N)N)C(=O)N[C@@H](C)C(=O)N[C@@H](CC(=O)O)C(=O)N[C@@H](C)C(=O)N[C@@H](CCCNC(=N)N)C(=O)N[C@@H](C)C(=O)N[C@@H](CC(=O)O)C(=O)N[C@@H](C)C(=O)NCC(=O)NCC(=O)NCC(=O)N[C@@H](C)C(=O)N[C@@H](C)C(=O)N1CCC[C@H]1C(=O)N[C@H](C(=O)NCC(=O)NCC(=O)NCC(=O)N[C@@H](CCCCN)C(=O)NCC(=O)N[C@@H](Cc1c[nH]cn1)C(=O)N[C@@H](CCCCN)C(N)=O)C(C)C [RADA-KGHK, Ac-(Arg-Ala-Asp-Ala)4-Gly-Gly-Gly-Ala-Ala-Pro-Val-Gly-Gly-Gly-Lys-Gly-His-Lys-NH2]
identified fragments of peptides after elastase digestion (most abundant MS signals) ([1]; fragment Ac-(RADA)4-GGG-AAPV-COOH): Ac-(RADA)4-GGG-AAPV-COOH | identified fragments of peptides after elastase digestion (most abundant MS signals) ([1]; fragment NH2-APV-GGG-KGHK-NH2): NH2-APV-GGG-KGHK-NH2 | identified fragments of peptides after elastase digestion (most abundant MS signals) ([1]; fragment NH2-PV-GGG-KGHK-NH2): NH2-PV-GGG-KGHK-NH2 | main / predominant fragments of elastase digestion ([1]; pH 7.5 buffer, HPLC, mass spectrometry): Ala^21Pro^22Val^23Gly^24Gly^25Gly^26Lys^27Gly^28His^29Lys^30 | fibre thickness (TEM) [2]: about 3 nm | cytotoxicity (LDH), slight effect [3]: ca. 15% | viability / dead cells on scaffold (CFSE / propidium iodide) [4]: most dead cells were observed
